Where “and” joins values, the source holds several entries; their conditions need not be identical. Equal values may be shown once.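 All cell lines were grown in 96-well plates and treated with compound for 48 hours. GI50 marks 50% less growth. The concentration for full growth arrest is given as TGI.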

Among the test systems are CAKI-1 renal; HCT-116 colon; LOX IMVI melanoma; NCI-H226 lung; NCI-H460 lung; OVCAR-4 ovarian; SK-MEL-2 melanoma; SNB-19 CNS; SW-620 colon; UACC-257 melanoma.
What all share (experiment): NCI-60 cell line screen, 48 h

On to `Cc1cn2c(/C=C3/C(=O)Nc4ccc(Cl)cc43)c(C)nc2s1`, for which the GI50 with CAKI-1 renal is 741 nM; with HCT-116 colon, less than 23.8 nM; with LOX IMVI melanoma, 70.6 nM; in the test with NCI-H226 lung, 11000 nM; in the test on NCI-H460 lung it was 1040 nM; in the test with OVCAR-4 ovarian, greater than 39300 nM. Further, the GI50 with SK-MEL-2 melanoma was 21400 nM; in the test on SW-620 colon, 220 nM; in the test with UACC-257 melanoma it was 12.9 µM. Further, the TGI is 25.3 µM in the test with HCT-116 colon; 54.5 µM in the test with LOX IMVI melanoma; greater than 90.6 µM with NCI-H226 lung; greater than 59.4 µM in the test on NCI-H460 lung; greater than 54 µM with OVCAR-4 ovarian; greater than 100 µM in the test with SK-MEL-2 melanoma. Besides, the TGI was greater than 42.4 µM in the test with SNB-19 CNS, greater than 67.7 µM in the test with SW-620 colon and greater than 100 µM in the test with UACC-257 melanoma.

Take `COC(=O)/C(=N/NC(C)(C)C)C(C(=O)OC)C(=O)C(=O)Nc1nc2ccc([N+](=O)[O-])cc2s1` (stereo not drawn): the TGI with CAKI-1 renal, with HCT-116 colon, with LOX IMVI melanoma, in the test on NCI-H226 lung, with NCI-H460 lung and with OVCAR-4 ovarian was greater than 100 µM in each case. In addition, the TGI in the test on SK-MEL-2 melanoma, in the test with SNB-19 CNS, in the test with SW-620 colon and in the test on UACC-257 melanoma was greater than 100 µM each time.

For `COc1cc(NC(C)CCCN2C(=O)c3ccccc3C2=O)c2ncccc2c1OC` (stereo not drawn), the GI50 in the test with CAKI-1 renal was 29500 nM; with HCT-116 colon, 31200 nM; with LOX IMVI melanoma, 28200 nM; in the test with NCI-H226 lung, 33300 nM; with NCI-H460 lung it was 35500 nM; with OVCAR-4 ovarian it was 11800 nM. In addition, the GI50 in the test with SK-MEL-2 melanoma was 29000 nM; with SNB-19 CNS, 67700 nM; in the test on SW-620 colon it was 35300 nM; in the test with UACC-257 melanoma it was 40.6 µM. In addition, the TGI was 74.4 µM in the test with CAKI-1 renal; greater than 100 µM in the test with HCT-116 colon; greater than 100 µM with LOX IMVI melanoma; greater than 100 µM with NCI-H226 lung; greater than 100 µM in the test with NCI-H460 lung; greater than 100 µM in the test with OVCAR-4 ovarian. Further, the TGI with SK-MEL-2 melanoma, in the test with SNB-19 CNS, with SW-620 colon and with UACC-257 melanoma was greater than 100 µM throughout.

As for `CNc1ncc2cc(-c3cc(NC(=O)NCCC(C)(C)C)c(F)cc3C)c(C)nc2n1`, the GI50 in the test on CAKI-1 renal was 437 nM and 200 nM; in the test with HCT-116 colon, 80.5 nM and 85.8 nM; in the test with LOX IMVI melanoma it was 102 nM and 57.3 nM; in the test with NCI-H226 lung, 1110 nM and 298 nM; with NCI-H460 lung, 473 nM and 332 nM; in the test on OVCAR-4 ovarian it was 543 nM and 785 nM. Moreover, the GI50 with SK-MEL-2 melanoma is 27.7 nM and 42.6 nM; in the test on SNB-19 CNS, 2230 nM and 1550 nM; with SW-620 colon, 270 nM and 256 nM; in the test with UACC-257 melanoma, 0.0139 µM. Also, the TGI in the test on CAKI-1 renal was greater than 100 µM; with HCT-116 colon, 11.8 µM and > 10 µM; in the test on LOX IMVI melanoma, 2.23 µM and 2 µM; with NCI-H226 lung, greater than 100 µM; in the test with NCI-H460 lung, greater than 100 µM; in the test on OVCAR-4 ovarian it was greater than 100 µM. Besides, the TGI with SK-MEL-2 melanoma is 0.143 µM and 0.265 µM; in the test on SNB-19 CNS, greater than 100 µM; in the test on SW-620 colon, greater than 100 µM; in the test with UACC-257 melanoma, 0.0555 µM.

For the molecule `CN1CCc2cc3c4cc2C1Cc1ccc(cc1)Oc1cc(ccc1O)CC1c2c(cc(O)c(c2O4)O3)CCN1C` (stereo not drawn), the TGI was found to be 34.8 µM in the test with CAKI-1 renal; 3.19 µM in the test on HCT-116 colon; 3.23 µM in the test with LOX IMVI melanoma; 4.97 µM in the test with NCI-H226 lung; 4.01 µM with NCI-H460 lung; 4.37 µM in the test on OVCAR-4 ovarian. Further, the TGI with SK-MEL-2 melanoma came out at 3.18 µM; in the test on SNB-19 CNS, 7.38 µM; in the test with SW-620 colon, 7.46 µM; in the test on UACC-257 melanoma it was 4.04 µM.

As to `O=C1NC(=N[C@H](CO)c2ccccc2)S/C1=C\c1ccc2ncccc2c1`, the GI50 in the test on CAKI-1 renal was 3750 nM; in the test on HCT-116 colon it was 1680 nM; in the test with LOX IMVI melanoma, 2410 nM; in the test on NCI-H226 lung, 4800 nM; with NCI-H460 lung it was 3710 nM; with OVCAR-4 ovarian it was 2670 nM. Moreover, the GI50 in the test on SK-MEL-2 melanoma was 5490 nM; in the test on SNB-19 CNS, 3730 nM; in the test on SW-620 colon, 4020 nM; in the test with UACC-257 melanoma, 6.39 µM. Also, the TGI with CAKI-1 renal is greater than 16 µM; in the test on HCT-116 colon it was greater than 21 µM; with LOX IMVI melanoma it was 22 µM; in the test on NCI-H226 lung, 16.5 µM; in the test on NCI-H460 lung, 24.6 µM; in the test on OVCAR-4 ovarian, greater than 25 µM. Further, the TGI was 14.3 µM in the test on SK-MEL-2 melanoma, greater than 25 µM in the test on SNB-19 CNS, greater than 20.5 µM in the test with SW-620 colon and 19.2 µM in the test on UACC-257 melanoma.

For the molecule `O=C1C(Br)=CC2(C=C1Br)CCNc1c(O)c3c4c(c12)=NCCC=4C=N3`, the TGI with CAKI-1 renal is 0.309 µM; in the test on HCT-116 colon it was 0.116 µM; in the test with LOX IMVI melanoma, 0.254 µM; in the test with NCI-H226 lung it was 2.74 µM; with NCI-H460 lung, 1.64 µM; in the test with OVCAR-4 ovarian, 0.211 µM. The TGI in the test with SK-MEL-2 melanoma worked out at 0.428 µM; in the test on SNB-19 CNS it was 3.97 µM; in the test on SW-620 colon, 0.105 µM; with UACC-257 melanoma, 0.25 µM.

For `CS(=O)(=O)N1CCc2c(-c3cnc(N)nc3)nc(N3CCOCC3)nc21`, the GI50 in the test with CAKI-1 renal is 484 nM and 651 nM; in the test with HCT-116 colon it was 571 nM and 553 nM; in the test on LOX IMVI melanoma it was 579 nM and 406 nM; with NCI-H226 lung, 520 nM and 343 nM; with NCI-H460 lung it was 333 nM and 286 nM; with OVCAR-4 ovarian it was 1210 nM and 945 nM. Further, the GI50 with SK-MEL-2 melanoma is 1280 nM and 1770 nM; with SNB-19 CNS, 2210 nM and 1640 nM; in the test with SW-620 colon, 1540 nM and 1290 nM; in the test on UACC-257 melanoma, 0.809 µM and 0.446 µM. Moreover, the TGI in the test with CAKI-1 renal is > 10 µM and 7.76 µM; in the test on HCT-116 colon, greater than 100 µM; with LOX IMVI melanoma, greater than 94.2 µM; in the test with NCI-H226 lung, 9.45 µM and 12.5 µM; in the test with NCI-H460 lung, greater than 100 µM; in the test with OVCAR-4 ovarian, greater than 25.7 µM. Moreover, the TGI in the test on SK-MEL-2 melanoma was 8.66 µM and 14 µM; with SNB-19 CNS, greater than 59.5 µM; in the test on SW-620 colon it was greater than 100 µM; in the test on UACC-257 melanoma, 6.85 µM and 3.8 µM.

With `O=C1NC(=O)C(c2c[nH]c3ccccc23)=C1c1ccccc1`, the GI50 with CAKI-1 renal is greater than 25000 nM; in the test on HCT-116 colon, greater than 25000 nM; in the test on LOX IMVI melanoma it was 23300 nM; in the test with NCI-H226 lung, greater than 20100 nM; in the test on NCI-H460 lung, greater than 25000 nM; with OVCAR-4 ovarian it was greater than 25000 nM. For the same molecule, the GI50 in the test with SK-MEL-2 melanoma was greater than 25000 nM; in the test with SNB-19 CNS, greater than 25000 nM; in the test on SW-620 colon, greater than 25000 nM; with UACC-257 melanoma, greater than 25 µM. The TGI with CAKI-1 renal, in the test with HCT-116 colon, in the test on LOX IMVI melanoma, in the test on NCI-H226 lung, with NCI-H460 lung and with OVCAR-4 ovarian was greater than 25 µM each time. In addition, the TGI in the test with SK-MEL-2 melanoma, in the test on SNB-19 CNS, in the test with SW-620 colon and with UACC-257 melanoma was greater than 25 µM throughout.

In the case of `COC(=O)[C@]12CC[C@@H](C)[C@H](C)[C@@H]1C1=CC[C@@H]3[C@@]4(C)CC(=O)[C@H](O)[C@@](C)(CO)[C@@H]4C(=O)C[C@@]3(C)[C@]1(C)CC2`, the GI50 is 11500 nM in the test with CAKI-1 renal; 10900 nM in the test with HCT-116 colon; 12200 nM in the test on LOX IMVI melanoma; 11900 nM in the test on NCI-H226 lung; 6660 nM in the test with NCI-H460 lung; 11000 nM in the test on OVCAR-4 ovarian. For the same molecule, the GI50 with SK-MEL-2 melanoma is 14500 nM; in the test on SNB-19 CNS, 12900 nM; in the test on SW-620 colon, 15100 nM; in the test on UACC-257 melanoma, 16.8 µM. Besides, the TGI was found to be 24 µM in the test on CAKI-1 renal; 23.3 µM in the test on HCT-116 colon; 25.8 µM in the test with LOX IMVI melanoma; 35.3 µM in the test with NCI-H226 lung; 22.6 µM with NCI-H460 lung; 25.1 µM in the test with OVCAR-4 ovarian. For the same molecule, the TGI in the test with SK-MEL-2 melanoma is 29.4 µM; in the test on SNB-19 CNS, 27.8 µM; in the test on SW-620 colon, 30.6 µM; in the test with UACC-257 melanoma, 31.7 µM.

As to `COc1ccc2c(c1)N(CCO)C1=C(C(=O)OC1)C2c1ccc(OC)c(OC)c1` (stereo not drawn), the GI50 is 3050 nM with CAKI-1 renal; 2640 nM in the test on HCT-116 colon; 4890 nM with LOX IMVI melanoma; 2290 nM with NCI-H226 lung; 3090 nM in the test on NCI-H460 lung; 4770 nM in the test on OVCAR-4 ovarian. Besides, the GI50 is 2660 nM in the test on SK-MEL-2 melanoma, 4540 nM with SNB-19 CNS, 3210 nM with SW-620 colon and 3.38 µM with UACC-257 melanoma. The TGI is greater than 100 µM in the test with CAKI-1 renal; 15.3 µM in the test with HCT-116 colon; greater than 100 µM in the test with LOX IMVI melanoma; 9.55 µM in the test with NCI-H226 lung; 12.6 µM in the test on NCI-H460 lung; greater than 100 µM in the test on OVCAR-4 ovarian. The TGI is 11.3 µM in the test with SK-MEL-2 melanoma, greater than 100 µM with SNB-19 CNS, greater than 100 µM in the test with SW-620 colon and greater than 100 µM with UACC-257 melanoma.

`N[C@@H](CSSC[C@H](N)C(=O)N1CCn2cc(-c3ccccc3)nc2[C@@H]1CC1CCCCC1)C(=O)N1CCn2cc(-c3ccccc3)nc2[C@@H]1CC1CCCCC1`: the GI50 is 1910 nM in the test on CAKI-1 renal; 1140 nM in the test with HCT-116 colon; 1340 nM in the test with LOX IMVI melanoma; 2020 nM in the test with NCI-H226 lung; 1920 nM in the test with NCI-H460 lung; 2150 nM in the test with OVCAR-4 ovarian. Besides, the GI50 was 837 nM in the test on SK-MEL-2 melanoma, 1360 nM with SNB-19 CNS, 1240 nM in the test with SW-620 colon and 1.4 µM in the test with UACC-257 melanoma. Also, the TGI in the test with CAKI-1 renal was 4.6 µM; with HCT-116 colon, 2.51 µM; in the test on LOX IMVI melanoma, 2.99 µM; with NCI-H226 lung, 4.09 µM; in the test with NCI-H460 lung, 6.4 µM; in the test with OVCAR-4 ovarian it was 4.8 µM. Further, the TGI came to 2.28 µM in the test on SK-MEL-2 melanoma, 2.85 µM in the test with SNB-19 CNS, 3.36 µM with SW-620 colon and 3.32 µM with UACC-257 melanoma.

These data come from PubChem BioAssay (NCI).
